Assay [1] can be described thus: A549 cell cytotoxicity, dose response, cytotoxicity control, plate reader, dry powder, set 6 (AID 743312). It is filed as functional, cell-based.
Assay [2] can be described thus: cells. Conditions: HEK293.
Assay [3] in a line: Mtb BioA inhibitors by displacement, dose response, biochemical, coupled fluorescence displacement, 20-point, dry powder (AID 743357). It is filed as functional.
Assay [4] in a line: HepG2 cell cytotoxicity, dose response, cytotoxicity control, luminescence plate reader, powder samples, set 2 (AID 651860). It is filed as functional, cell-based.
A short description of assay [5]: Late-stage results from the probe development effort to identify antagonists of arginine vasopressin receptor 1a (AVPR1a): fluorescence-based cell-based dose response AVPR1a inhibition assay. It is filed as functional.
The target in the next assay is Vasopressin V1b receptor (Homo sapiens, UniProt P47901). Briefly: Late-stage results from the probe development effort to identify antagonists of arginine vasopressin receptor 1a (AVPR1a): fluorescence-based cell-based dose response AVPR1b inhibition counterscreen assay. It is filed as functional.
Chain of Vasopressin V1b receptor (P47901 whole entry): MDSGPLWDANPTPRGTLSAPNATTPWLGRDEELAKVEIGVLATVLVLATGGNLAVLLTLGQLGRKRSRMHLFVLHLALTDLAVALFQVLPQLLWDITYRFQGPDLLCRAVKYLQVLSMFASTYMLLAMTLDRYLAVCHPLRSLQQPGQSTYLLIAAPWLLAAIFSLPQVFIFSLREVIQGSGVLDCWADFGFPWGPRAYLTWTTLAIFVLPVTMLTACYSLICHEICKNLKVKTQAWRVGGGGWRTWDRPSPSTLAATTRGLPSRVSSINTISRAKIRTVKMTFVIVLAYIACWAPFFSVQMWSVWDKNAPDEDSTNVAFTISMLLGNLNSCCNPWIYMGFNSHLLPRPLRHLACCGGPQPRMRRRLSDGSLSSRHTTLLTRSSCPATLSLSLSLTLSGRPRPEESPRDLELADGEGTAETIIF
The nature of assay [6]: Late-stage results from the probe development effort to identify antagonists of arginine vasopressin receptor 1a (AVPR1a): fluorescence-based cell-based dose response OXTR inhibition counterscreen assay. It is filed as functional.
The next assay has as its target Vasopressin V2 receptor (Homo sapiens, UniProt P30518). The assay can be described thus: Late-stage results from the probe development effort to identify antagonists of arginine vasopressin receptor 1a (AVPR1a): fluorescence-based cell-based dose response AVPR2 inhibition counterscreen assay. It is filed as functional.
Assay [7] in a line: YAP1 pathway inhibition via CTGF transcript levels, dose response, cell-based, DLD1 colon cancer, RT-qPCR, cherry-pick (AID 1053122). Conditions: Cancer cell lines. It is filed as functional.
A short description of assay [8]: CTGF mRNA reduction under YAP1 overexpression, dose response, mechanism study for YAP1 pathway inhibitor project, DLD1 cells, RT-qPCR, cherry-pick (AID 1053127). It is filed as functional, cell-based. The note with it: DLD-1.
Assay [9] in a line: Shn3 3'UTR reporter inhibitors, dose response, cell-based, Clone20 osteoblasts, firefly luciferase, cherry-picked (AID 624132).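 Further: firefly luciferase luminescence from reporter carrying the Shn3 3'UTR in osteoblasts.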 It is filed as functional.
Assay [10] in a line: cytotoxicity dependent on PAX8, dose response, cell-based, plate reader, dry powder (AID 743049). It is filed as functional.
In another assay the target is Paired box protein Pax-8 (Homo sapiens, UniProt Q06710). Briefly: inhibitors of PAX8-driven TPO luciferase reporter, dose response, RMG-I cells, cherry-pick (AID 687027).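 Further: luciferase reporter driven by Pax8 target thyroperoxidase promoter measured by SteadyGlo luminescence.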 It is filed as functional, cell-based.
Chain of Paired box protein Pax-8 (Q06710 whole entry): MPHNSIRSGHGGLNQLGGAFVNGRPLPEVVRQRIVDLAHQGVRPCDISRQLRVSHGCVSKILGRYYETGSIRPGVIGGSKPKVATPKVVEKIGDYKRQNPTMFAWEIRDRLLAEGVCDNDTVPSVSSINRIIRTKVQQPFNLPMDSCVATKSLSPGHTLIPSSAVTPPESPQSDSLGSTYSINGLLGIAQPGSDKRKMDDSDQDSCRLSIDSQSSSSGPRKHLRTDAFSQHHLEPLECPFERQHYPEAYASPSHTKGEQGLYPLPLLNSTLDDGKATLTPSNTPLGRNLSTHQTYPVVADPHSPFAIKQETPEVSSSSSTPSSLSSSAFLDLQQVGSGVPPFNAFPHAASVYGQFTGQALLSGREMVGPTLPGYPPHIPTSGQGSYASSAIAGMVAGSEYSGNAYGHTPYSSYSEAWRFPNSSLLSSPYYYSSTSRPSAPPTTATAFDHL
Assay [11] in a line: inhibitors of SNCA 5'UTR-driven translation, confirmation, luminescence, H4 neuroglioblastoma cells, dose confirmation (AID 2454).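 Further: H4 neuroglioblastoma cells carrying an alpha-synuclein 5'UTR luciferase reporter; potency for inhibition of the luciferase signal.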 It is filed as functional, cell-based.
The nature of assay [12]: PAX5 activity inhibitors, dose response, selectivity assay for PAX8 inhibitor project, cell-based, plate reader, dry powder samples (AID 743047).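 Further: HEK293 cells carrying a Pax5 driven CD19 promoter luciferase reporter; potency of inhibitors that lower reporter luminescence.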 It is filed as functional.
Assay [13] concerns H4. Briefly: Inhibitors of Prion Protein 5' UTR mRNA Measured in Cell-Based System Using Plate Reader - 2078-01_Inhibitor_Dose_DryPowder_Activity. [Related pubchem assays (depositor defined):AID488894]. It is filed as functional. The note with it: Homo sapiens.
Assay [14] is described as follows: cytotoxicity in HEK-293T cells, dose response, cytotoxicity control for BCR NF-kB inhibitor project, luminescence, B-cell screen hits (AID 489021).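 Further: HEK-293T cells carrying an NF-kB luciferase reporter; cells exposed to compound for about 14 hours before viability readout.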 It is filed as functional, cell-based.
The nature of assay [15]: Luminescence-based counterscreen assay for KLF5 inhibitors: dose response cell-based high throughput screening assay to identify cytotoxic compounds using the IEC-6 intestinal epithelial cell line. [Related pubchem assays: 1700 (Primary screen.), 1834 (Confirmation screen.), 1858 (Summary AID.), 1905 (Counterscreen.)]. It is filed as functional.
The nature of assay [16]: PAX2 cell-based inhibition, dose response, selectivity assay for PAX8 inhibitor project, plate reader, dry powder samples (AID 743048).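 Further: HEK293 cells carrying a WT1 promoter luciferase reporter driven by expressed Pax2; potency is for inhibition of Pax2 driven reporter signal.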 It is filed as functional.
The nature of assay [17]: cytotoxicity in COV362 ovarian cancer cells, dose response, cytotoxicity control for PAX8 inhibitor project, cell-based, plate reader, dry powder, SA12 (AID 743144). It is filed as functional.
Assay [18] can be described thus: inhibitors of SNCA 5'UTR-driven reporter translation, confirmation, H4 neuroglioma cells, luminescence (AID 1988). It is filed as functional, cell-based.
Assay [19] in a line: cells. It is filed as functional, cell-based.
Assay [20] in a line: reduction of Shn3 3'UTR firefly luciferase signal, dose response, Schnurri-3 inhibitor project, cell-based, Clone20 osteoblasts, cherry-pick, set 2 (AID 720490).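 Further: actives lower the luminescence signal as inhibitors.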 It is filed as functional.
Assay [21] deals with H4. Briefly: inhibitors of control reporter signal in H4 cells – cell-based, plate reader, dry powder samples, counter-screen for prion reporter project, dose response (AID 540255). It is filed as functional. The note with it: Homo sapiens.
The nature of assay [22]: Luminescence Cell-Based Dose Response HTS to Identify Inhibitors of 5'UTR Stem-Loop Driven Prion Protein mRNA Translation in H4 Neuroglioblastoma Cells. [Related pubchem assays: 1827 (Project Summary), 1813 (Primary HTS)]. It is filed as functional.
Assay [23] in a line: inhibitors of firefly luciferase expression or activity, dose response, H4 neuroglioma cells, luminescence (AID 1990). It is filed as functional, cell-based.
Assay [24] is described as follows: luciferase reporter signal reduction – luminescence, H4-C neuroglioblastoma cells, dose response (AID 2458).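 Further: H4 neuroglioblastoma cells stably carrying a luciferase reporter gene fusion.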 It is filed as functional, cell-based.
A further assay has as its target T1, Streptokinase A (Streptococcus pyogenes serotype M1, UniProt P10520).
T1 sequence (P10520 whole entry): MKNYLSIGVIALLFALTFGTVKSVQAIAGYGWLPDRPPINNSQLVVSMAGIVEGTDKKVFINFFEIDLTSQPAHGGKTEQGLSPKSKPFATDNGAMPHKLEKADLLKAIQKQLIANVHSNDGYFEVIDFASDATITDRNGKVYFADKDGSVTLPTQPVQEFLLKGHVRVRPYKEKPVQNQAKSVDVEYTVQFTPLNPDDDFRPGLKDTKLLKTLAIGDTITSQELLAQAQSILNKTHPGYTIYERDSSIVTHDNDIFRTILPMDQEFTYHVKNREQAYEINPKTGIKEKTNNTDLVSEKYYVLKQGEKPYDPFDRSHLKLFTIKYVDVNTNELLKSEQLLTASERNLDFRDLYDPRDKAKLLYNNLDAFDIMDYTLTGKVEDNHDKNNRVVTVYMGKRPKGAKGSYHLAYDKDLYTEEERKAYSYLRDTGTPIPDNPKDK
Briefly: S. pyogenes streptokinase expression inhibitors, potency, dose response, plasminogen activation absorbance, OD405 (AID 1914).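 Further: secreted streptokinase activity via plasminogen activation per viability signal from cell pellet.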 It is filed as functional, Streptococcus pyogenes M1 GAS.

Another assay concerns Streptococcus. Briefly: Group A Streptococcus viability loss, dose response, counter-screen for streptokinase expression inhibitor project, luminescence, BacTiterGlo (AID 1915).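 Further: potency for reduction of bacterial viability or growth.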 It is filed as functional, organism-based.
The target of assay [25] is Disintegrin and metalloproteinase domain-containing protein 17 (Homo sapiens, UniProt P78536). The assay can be described thus: ADAM17 protease inhibitors, dose response, counter-screen for ADAM10 exosite inhibitor project, biochemical, quenched FRET substrate (AID 743253).
Chain of Disintegrin and metalloproteinase domain-containing protein 17 (P78536 whole entry, the tested form may be a part): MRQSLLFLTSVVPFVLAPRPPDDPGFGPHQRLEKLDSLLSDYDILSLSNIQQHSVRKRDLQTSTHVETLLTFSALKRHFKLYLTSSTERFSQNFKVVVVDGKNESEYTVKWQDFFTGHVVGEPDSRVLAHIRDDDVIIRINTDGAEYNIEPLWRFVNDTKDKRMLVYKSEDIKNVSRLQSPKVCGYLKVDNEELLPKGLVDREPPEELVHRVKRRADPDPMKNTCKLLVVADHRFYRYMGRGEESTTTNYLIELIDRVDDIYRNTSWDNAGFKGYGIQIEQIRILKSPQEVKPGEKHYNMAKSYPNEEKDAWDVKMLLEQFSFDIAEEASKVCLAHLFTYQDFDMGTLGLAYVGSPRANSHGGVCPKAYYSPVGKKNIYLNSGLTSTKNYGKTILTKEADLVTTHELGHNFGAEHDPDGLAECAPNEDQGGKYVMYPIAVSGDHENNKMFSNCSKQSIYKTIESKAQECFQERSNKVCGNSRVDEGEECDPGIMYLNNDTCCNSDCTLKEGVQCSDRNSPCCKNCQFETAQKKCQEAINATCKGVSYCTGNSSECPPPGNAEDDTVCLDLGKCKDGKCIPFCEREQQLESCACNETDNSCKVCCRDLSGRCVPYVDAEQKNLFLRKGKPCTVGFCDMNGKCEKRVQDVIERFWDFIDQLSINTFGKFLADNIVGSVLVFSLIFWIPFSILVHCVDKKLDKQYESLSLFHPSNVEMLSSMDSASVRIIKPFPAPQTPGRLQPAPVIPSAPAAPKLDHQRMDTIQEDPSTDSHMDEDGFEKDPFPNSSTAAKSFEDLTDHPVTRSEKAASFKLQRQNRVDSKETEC
Assay [26] relates to Streptococcus sp. 'group A'. Briefly: growth inhibition of control SK(-) GAS strain, dose response, counter-screen for streptokinase expression inhibitor project, luminescence, kanamycin, BacTiterGlo, confirmation (AID 1900). It is filed as functional, organism-based.

The structures appear in SMILES notation. Calls of active or inactive are those of the source.

Chain of Vasopressin V2 receptor (P30518 whole entry): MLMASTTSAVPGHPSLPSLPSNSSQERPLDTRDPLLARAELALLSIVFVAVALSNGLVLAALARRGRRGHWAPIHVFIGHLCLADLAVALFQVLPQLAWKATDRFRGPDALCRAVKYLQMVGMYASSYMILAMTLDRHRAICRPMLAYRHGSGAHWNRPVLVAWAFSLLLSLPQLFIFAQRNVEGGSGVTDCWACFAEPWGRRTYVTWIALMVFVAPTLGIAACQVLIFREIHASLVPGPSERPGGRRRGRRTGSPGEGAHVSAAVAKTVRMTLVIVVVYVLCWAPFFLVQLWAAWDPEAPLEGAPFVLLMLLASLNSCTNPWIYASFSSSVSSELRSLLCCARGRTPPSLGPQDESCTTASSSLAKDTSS

As for `Cc1ccc(C(C)C)c(OCCn2c(=O)[nH]c3ccccc32)c1`, the AC50 was 23.1 µM (active) in assay [1] and 32.4 µM (active) in the assay “cells [2]”.

On to `CN(C)C(=O)c1ccc(N2CCN(C(=O)c3ccc4c(c3)OCO4)CC2)cc1`, for which, in [3], the AC50 was 14 µM (active).

`Cc1cc(C)c(S(=O)(=O)Nc2cc(C(C(=O)OC(C)C)C(=O)C(F)(F)F)c(O)c3ccccc23)c(C)c1` (stereo unspecified): the AC50 in [4] is > 52 µM (inactive).

Regarding `Cc1ccccc1N1CCN(C(=O)N(CC2CC2)c2ccc(Cl)cc2)CC1`, the IC50 in [5] is 2.7 nM (active); at Vasopressin V1b receptor, 12.8 µM (inactive); in assay [6] it was 46 nM (active); on Vasopressin V2 receptor, 1.02 µM (active).

Regarding `COc1cccc(-c2ccc([C@H]3[C@H]4CN(C(=O)Cc5ccncc5)CCCCN4[C@H]3CO)cc2)c1`, the concentration at half-maximal activity (AC50) was 2.79 µM (active) in [7] and 9.34 µM (active) in [8].

In the case of `O=C(CN1C(=O)c2ccccc2S1(=O)=O)c1ccc(Cl)cc1Cl`, the concentration at half-maximal activity (AC50) in assay [9] is 3.53 µM (active); in assay [10], 88.1 µM (active); at Paired box protein Pax-8, 2.93 µM (active); in assay [12], 1.37 µM (active); in the assay with H4 [13], 168 nM (active); in assay [16], 1.18 µM (active). The concentration at half-maximal activity (AC50) in assay [17] is 93.5 µM (active); in assay [20], 5.38 µM (active); in the assay on H4 [21], 456 nM (active). The EC50 was 774 nM (active) in [11]; < 100 nM (active) in assay [18]; 794 nM (active) in “cells [19]”; < 100 nM (active) in assay [22]; 310 nM (active) in assay [23]; 595 nM (active) in assay [24]. Moreover, the IC50 was > 80 µM (inactive) in assay [14] and > 39.8 µM (not active) in assay [15].

Take `CCCN(CC(=O)Nc1cc(Cl)cc(Cl)c1)CC(=O)Nc1ccc(F)c(F)c1F`: the figures for the half-maximal effective concentration (EC50) (on Streptokinase A; in the assay on Streptococcus; in [26]) were 1.48 µM (active), 10.4 µM (active) and 1.77 µM (active), respectively. Also, the IC50 in assay [25] is > 69.5 µM (inactive).

The values are drawn from ChEMBL document CHEMBL1201862, “PubChem BioAssay data set” (2004).
